This note sets out measurements from PMC4279382, “Antitumor activity of S116836, a novel tyrosine kinase inhibitor, against imatinib-resistant FIP1L1-PDGFRα-expressing cells” (Oncotarget, 2014).

What all share (assay): KINOMEscan competition binding, single concentration
Conditions in all cases: read-out: % Ctrl @ 100nM

The target in test [1] is T1, ABL1-nonphosphorylated (Homo sapiens, UniProt P00519).
T1 construct: KINOMEscan (Ambit) panel kinase, nonphosphorylated form
The source says:
(§1) KINOMEscan competition binding, single concentration on ABL1-nonphosphorylated

In test [2] the target is T2, ABL1-nonphosphorylated (Homo sapiens, UniProt P00519, T315I).
T2 construct: KINOMEscan (Ambit) panel kinase, nonphosphorylated form
Text: as §1

The next test has as its target T3, BLK (Homo sapiens, UniProt P51451).
T3 construct: KINOMEscan (Ambit) panel kinase
The source says: KINOMEscan competition binding, single concentration on BLK

The target of the next test is T4, LYN (Homo sapiens, UniProt P07948).
T4 construct: KINOMEscan (Ambit) panel kinase
The source says: KINOMEscan competition binding, single concentration on LYN

Another test deals with T5, FLT3 (Homo sapiens, UniProt P36888).
T5 construct: KINOMEscan (Ambit) panel kinase
T5 sequence (P36888 27-993): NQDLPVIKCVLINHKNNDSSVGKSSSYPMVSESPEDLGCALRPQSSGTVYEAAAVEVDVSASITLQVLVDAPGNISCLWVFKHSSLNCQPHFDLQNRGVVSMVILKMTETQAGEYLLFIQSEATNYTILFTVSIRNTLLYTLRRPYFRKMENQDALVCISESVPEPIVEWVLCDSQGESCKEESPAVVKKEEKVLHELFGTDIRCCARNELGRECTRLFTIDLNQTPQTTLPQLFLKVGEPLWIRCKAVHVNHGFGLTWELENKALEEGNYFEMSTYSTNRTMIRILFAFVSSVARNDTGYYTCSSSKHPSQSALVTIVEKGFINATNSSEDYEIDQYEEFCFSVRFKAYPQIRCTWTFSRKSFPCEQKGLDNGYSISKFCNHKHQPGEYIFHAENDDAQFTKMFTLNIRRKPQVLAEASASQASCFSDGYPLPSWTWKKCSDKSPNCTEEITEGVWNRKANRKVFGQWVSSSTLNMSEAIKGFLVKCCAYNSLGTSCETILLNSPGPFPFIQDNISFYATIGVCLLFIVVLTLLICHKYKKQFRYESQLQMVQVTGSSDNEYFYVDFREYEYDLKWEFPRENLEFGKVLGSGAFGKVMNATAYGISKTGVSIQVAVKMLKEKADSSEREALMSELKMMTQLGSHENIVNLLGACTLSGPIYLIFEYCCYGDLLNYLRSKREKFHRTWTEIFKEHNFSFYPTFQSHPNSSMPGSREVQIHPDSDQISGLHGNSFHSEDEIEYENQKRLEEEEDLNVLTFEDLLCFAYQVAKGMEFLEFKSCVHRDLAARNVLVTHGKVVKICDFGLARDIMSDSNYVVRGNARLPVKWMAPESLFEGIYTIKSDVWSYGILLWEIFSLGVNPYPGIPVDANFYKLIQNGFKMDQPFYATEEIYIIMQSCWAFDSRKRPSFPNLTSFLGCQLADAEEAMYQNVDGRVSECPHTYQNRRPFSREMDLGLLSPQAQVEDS
The source says: KINOMEscan competition binding, single concentration on FLT3

The target in a further test is T6, KIT (Homo sapiens, UniProt P10721).
T6 construct: KINOMEscan (Ambit) panel kinase
The source says: KINOMEscan competition binding, single concentration on KIT

Another test concerns the target T7, PLK1 (Homo sapiens, UniProt P53350).
T7 construct: KINOMEscan (Ambit) panel kinase
The source says:
KINOMEscan competition binding, single concentration on PLK1

The target in another test is T8, PDGFRβ (Homo sapiens, UniProt P09619).
T8 construct: gene PDGFRB; KINOMEscan (Ambit) panel kinase
The source says:
KINOMEscan competition binding, single concentration on PDGFRβ

The target of another test is T9, SRC (Homo sapiens, UniProt P12931).
T9 construct: KINOMEscan (Ambit) panel kinase
The source says: KINOMEscan competition binding, single concentration on SRC

The target of the next test is T10, CDK2 (Homo sapiens, UniProt P24941).
T10 construct: KINOMEscan (Ambit) panel kinase; no cyclin named
The source says:
KINOMEscan competition binding, single concentration on CDK2

In another test the target is T11, HCK (Homo sapiens, UniProt P08631).
T11 construct: KINOMEscan (Ambit) panel kinase
The source says: KINOMEscan competition binding, single concentration on HCK

The target of another test is T12, PDGFRα (Homo sapiens, UniProt P16234).
T12 construct: gene PDGFRA; KINOMEscan (Ambit) panel kinase
The source says: KINOMEscan competition binding, single concentration on PDGFRα

In another test the target is T13, TIE2 (Homo sapiens, UniProt Q02763).
T13 construct: gene TEK; KINOMEscan (Ambit) panel kinase
The source says: KINOMEscan competition binding, single concentration on TIE2

Another test has as its target T14, LCK (Homo sapiens, UniProt P06239).
T14 construct: KINOMEscan (Ambit) panel kinase
The source says:
KINOMEscan competition binding, single concentration on LCK

T13 sequence (Q02763 23-1124): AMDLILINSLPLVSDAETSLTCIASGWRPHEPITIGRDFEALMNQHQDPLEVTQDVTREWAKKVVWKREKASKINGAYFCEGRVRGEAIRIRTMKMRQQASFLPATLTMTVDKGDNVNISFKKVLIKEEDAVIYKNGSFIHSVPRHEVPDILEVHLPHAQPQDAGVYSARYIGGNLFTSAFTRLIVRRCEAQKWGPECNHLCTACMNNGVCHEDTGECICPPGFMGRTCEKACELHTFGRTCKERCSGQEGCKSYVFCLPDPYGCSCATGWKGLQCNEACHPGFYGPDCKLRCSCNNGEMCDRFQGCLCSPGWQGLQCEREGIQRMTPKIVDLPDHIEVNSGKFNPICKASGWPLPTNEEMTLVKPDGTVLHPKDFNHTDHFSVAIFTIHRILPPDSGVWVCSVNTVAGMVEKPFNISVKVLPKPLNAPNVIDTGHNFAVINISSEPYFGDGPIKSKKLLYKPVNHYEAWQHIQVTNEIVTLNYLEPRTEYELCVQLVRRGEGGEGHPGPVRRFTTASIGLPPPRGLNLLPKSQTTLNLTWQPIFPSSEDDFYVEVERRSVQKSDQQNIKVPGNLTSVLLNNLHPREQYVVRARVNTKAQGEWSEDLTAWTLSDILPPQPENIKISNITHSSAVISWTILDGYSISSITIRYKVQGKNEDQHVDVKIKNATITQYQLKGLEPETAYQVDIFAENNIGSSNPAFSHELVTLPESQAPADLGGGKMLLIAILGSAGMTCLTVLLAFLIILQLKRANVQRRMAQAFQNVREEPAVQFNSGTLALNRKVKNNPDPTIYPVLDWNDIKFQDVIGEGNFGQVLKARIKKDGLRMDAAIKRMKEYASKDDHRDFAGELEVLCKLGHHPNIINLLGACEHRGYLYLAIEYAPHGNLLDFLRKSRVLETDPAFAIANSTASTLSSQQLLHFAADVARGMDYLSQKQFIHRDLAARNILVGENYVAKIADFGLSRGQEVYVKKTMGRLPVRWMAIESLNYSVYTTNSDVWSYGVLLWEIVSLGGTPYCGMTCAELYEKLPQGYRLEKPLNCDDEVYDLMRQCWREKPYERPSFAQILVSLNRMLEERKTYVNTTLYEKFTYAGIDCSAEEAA
T8 sequence (P09619 33-1106): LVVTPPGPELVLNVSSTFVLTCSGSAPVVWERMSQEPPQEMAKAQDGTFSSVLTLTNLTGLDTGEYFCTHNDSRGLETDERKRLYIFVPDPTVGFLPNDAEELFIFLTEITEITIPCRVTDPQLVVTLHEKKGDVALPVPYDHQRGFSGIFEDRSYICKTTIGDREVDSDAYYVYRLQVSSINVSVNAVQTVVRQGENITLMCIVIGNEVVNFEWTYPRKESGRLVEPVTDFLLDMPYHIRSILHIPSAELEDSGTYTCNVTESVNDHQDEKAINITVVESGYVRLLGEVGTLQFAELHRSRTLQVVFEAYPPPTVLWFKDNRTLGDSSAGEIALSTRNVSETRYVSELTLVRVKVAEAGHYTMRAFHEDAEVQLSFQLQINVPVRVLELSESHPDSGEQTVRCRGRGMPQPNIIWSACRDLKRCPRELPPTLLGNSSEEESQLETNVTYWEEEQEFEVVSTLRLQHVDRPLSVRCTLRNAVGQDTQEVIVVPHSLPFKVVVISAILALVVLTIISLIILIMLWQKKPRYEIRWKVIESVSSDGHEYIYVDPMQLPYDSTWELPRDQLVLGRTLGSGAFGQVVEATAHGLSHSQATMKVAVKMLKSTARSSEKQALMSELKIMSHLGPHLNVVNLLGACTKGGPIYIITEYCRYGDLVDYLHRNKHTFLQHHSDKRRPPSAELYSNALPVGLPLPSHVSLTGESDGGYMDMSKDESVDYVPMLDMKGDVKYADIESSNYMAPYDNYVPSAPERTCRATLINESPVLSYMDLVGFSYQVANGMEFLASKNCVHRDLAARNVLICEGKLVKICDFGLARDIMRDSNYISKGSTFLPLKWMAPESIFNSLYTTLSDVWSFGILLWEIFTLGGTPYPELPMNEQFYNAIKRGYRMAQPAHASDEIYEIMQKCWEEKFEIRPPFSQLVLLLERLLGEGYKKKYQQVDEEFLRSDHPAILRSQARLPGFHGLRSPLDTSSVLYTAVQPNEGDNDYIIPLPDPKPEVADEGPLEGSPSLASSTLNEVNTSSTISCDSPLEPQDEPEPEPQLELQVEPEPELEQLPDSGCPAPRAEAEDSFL
T6 sequence (P10721 26-976): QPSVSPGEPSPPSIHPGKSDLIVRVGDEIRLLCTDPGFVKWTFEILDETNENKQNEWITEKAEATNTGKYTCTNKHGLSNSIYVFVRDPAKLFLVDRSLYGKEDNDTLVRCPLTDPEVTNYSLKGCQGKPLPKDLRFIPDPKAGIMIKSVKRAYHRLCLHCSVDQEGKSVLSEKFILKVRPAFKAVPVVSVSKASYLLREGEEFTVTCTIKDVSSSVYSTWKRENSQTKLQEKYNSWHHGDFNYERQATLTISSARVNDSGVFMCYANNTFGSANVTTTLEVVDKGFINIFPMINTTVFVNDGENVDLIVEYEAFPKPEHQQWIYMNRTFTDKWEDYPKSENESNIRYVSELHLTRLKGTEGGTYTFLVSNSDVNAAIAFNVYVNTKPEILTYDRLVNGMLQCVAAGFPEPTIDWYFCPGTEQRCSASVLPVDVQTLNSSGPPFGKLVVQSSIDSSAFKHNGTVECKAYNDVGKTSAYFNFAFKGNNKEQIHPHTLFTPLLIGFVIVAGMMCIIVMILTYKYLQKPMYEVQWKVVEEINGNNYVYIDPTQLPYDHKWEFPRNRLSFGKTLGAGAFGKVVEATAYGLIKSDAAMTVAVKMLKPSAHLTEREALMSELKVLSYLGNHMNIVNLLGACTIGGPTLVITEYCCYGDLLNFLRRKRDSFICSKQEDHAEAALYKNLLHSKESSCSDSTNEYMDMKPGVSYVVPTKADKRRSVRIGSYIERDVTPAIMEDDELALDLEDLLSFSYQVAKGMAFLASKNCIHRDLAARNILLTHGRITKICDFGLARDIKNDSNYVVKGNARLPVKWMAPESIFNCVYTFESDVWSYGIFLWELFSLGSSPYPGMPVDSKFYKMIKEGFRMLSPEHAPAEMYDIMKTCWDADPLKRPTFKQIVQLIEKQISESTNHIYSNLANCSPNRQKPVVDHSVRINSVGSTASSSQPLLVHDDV
T3 sequence (P51451 2-505): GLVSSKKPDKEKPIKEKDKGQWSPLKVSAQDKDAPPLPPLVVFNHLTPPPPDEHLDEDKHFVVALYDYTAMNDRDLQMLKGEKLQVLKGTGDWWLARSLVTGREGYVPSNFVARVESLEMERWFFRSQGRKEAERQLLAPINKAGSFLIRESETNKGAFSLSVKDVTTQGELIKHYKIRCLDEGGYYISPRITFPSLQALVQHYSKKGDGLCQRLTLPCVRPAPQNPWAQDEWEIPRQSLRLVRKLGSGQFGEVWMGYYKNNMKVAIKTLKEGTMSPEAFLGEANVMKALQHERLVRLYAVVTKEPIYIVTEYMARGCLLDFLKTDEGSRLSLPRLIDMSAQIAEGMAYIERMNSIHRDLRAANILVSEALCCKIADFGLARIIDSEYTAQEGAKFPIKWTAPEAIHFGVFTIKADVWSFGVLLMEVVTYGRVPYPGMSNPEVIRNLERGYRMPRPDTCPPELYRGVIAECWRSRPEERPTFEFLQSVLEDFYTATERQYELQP
T14 sequence (P06239 2-509): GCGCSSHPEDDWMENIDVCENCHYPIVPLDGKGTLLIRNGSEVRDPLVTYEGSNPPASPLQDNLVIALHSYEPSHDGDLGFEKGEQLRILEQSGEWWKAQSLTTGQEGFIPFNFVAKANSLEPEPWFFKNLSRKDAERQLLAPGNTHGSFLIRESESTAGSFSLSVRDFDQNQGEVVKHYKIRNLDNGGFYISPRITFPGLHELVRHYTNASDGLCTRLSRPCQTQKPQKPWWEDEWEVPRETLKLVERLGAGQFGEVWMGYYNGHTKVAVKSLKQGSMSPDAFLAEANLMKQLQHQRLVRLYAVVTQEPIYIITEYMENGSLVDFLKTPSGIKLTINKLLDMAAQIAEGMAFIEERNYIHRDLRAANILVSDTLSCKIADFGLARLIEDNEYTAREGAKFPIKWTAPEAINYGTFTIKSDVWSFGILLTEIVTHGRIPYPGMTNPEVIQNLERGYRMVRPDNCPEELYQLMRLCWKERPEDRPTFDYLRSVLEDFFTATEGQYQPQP
T4 sequence (P07948 2-512): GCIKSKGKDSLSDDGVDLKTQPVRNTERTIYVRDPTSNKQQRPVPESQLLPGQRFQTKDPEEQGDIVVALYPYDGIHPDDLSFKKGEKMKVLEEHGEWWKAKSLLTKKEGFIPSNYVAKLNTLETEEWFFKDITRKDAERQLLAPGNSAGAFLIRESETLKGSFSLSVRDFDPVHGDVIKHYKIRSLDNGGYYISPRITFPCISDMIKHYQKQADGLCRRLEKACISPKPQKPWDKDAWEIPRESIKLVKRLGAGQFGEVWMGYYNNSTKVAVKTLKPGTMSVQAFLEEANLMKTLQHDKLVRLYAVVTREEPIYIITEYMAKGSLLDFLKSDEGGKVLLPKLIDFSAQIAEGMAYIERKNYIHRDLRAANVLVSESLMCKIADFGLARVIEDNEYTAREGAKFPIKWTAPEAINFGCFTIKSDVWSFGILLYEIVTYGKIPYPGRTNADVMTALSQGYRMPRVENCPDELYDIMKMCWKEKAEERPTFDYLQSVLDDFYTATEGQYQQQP

In the case of `Cc1ccc(C(=O)Nc2cc(-n3ccnc3)cc(C(F)(F)F)c2)cc1C#Cc1cnc(NC2CC2)nc1` [S116836], the remaining binding at 0.1 µM came out at 18% on ABL1-nonphosphorylated [1]; 20% on ABL1-nonphosphorylated [2]; 10% on BLK; 16% at LYN; 1.8% on FLT3; 6.8% at KIT. The remaining binding at 0.1 µM on PLK1 was determined as 100%; at PDGFRβ it was 3.3%; on SRC it was 33%; on CDK2 it was 99%; on HCK it was 6.2%; at PDGFRα, 26%. For the same compound, the remaining binding at 0.1 µM was 0.85% at TIE2 and 3.4% on LCK.
